Test results as given in paper PMC7200784, “In-vitro safety and off-target profile of the anti-parasitic arylmethylaminosteroid 1o” (Scientific Reports, 2020).

Tested on: Caco-2 cell barrier
Experiment: Caco-2 cell barrier integrity (TEER and capacitance, cellZscope2)
Assay type: cell-based
Settings: 20 h after addition, value before addition = 100%; 10 mM EGTA
Experimental: Twenty thousand CaCo-2 cells were seeded on 24-well ThinCerts (pre-coated with FCS for 30 min). In the lower compartment (basolateral), 1 ml culture medium per well was added. As a control, half of the ThinCerts were not seeded with cells. The ThinCerts were transferred to the cellZscope2 (nanoAnalytics). Two hundred µl of medium was added to the ThinCerts to reach a final volume of 300 µl in the upper compartment (apical). The TEER and capacitance were measured every hour. After 5 days, the TEER reached a constant value of 700–900 Ohm*cm² and the medium was replaced with EMEM with 2% FCS, 2 mM L-glutamine, 1x non-essential amino acids, and 110 nM hydrocortisone. The TEER and capacitance were measured every hour for 1 day. Sc1o (0 µM, 1 µM, 10 µM, 25 µM, 50 µM) diluted in EMEM with 2% FCS, 2 mM L-glutamine, 1x non-essential amino acids, and 110 nM hydrocortisone were added to the apical compartment. As a control, 10 mM of EGTA was used. The cellZscope2 module was transferred into the incubator for 24 h, and every 30 min the TEER and capacitance were detected. TEER and capacitance values at the time point of adding the compound solution were used as references to calculate the alteration (t0h-value). […] At time point 0h and after 24 h the medium of the basolateral and apical compartment was collected and stored at −20 °C and analysed by LC-MS/MS.

Question: How did the “Relative TEER” value turn out when `O=C(O)CN(CCOCCOCCN(CC(=O)O)CC(=O)O)CC(=O)O` [EGTA, Ethylene glycol-bis(β-aminoethyl ether)-N,N,N′,N′-tetraacetic acid] was run?
Answer: Its value is 0.12 ± 0.03%.

Question: And the Relative capacitance?
Answer: Its Relative capacitance is 481 ± 168%.
